This note sets out measurements from patent US7960369B2, “Receptor function regulator” (Takeda Pharmaceutical Company Limited, priority 2002, dated 2011).

One experiment concerns the target T1, human GPR40 (Homo sapiens, UniProt O14842).
T1 construct: expressed in transfected cells; host or cells: CHO cell line CHO-hGPR40 No. 104 (pAKKO-111 vector)
Description: Effect of regulation of GPR40 receptor function (agonistic effect), intracellular calcium by FLIPR. The format is cell-based. The settings on record: CHO cell line (No. 104) expressing human GPR40, fluorescence intensity at 30 sec after start of reaction. As to the method: CHO cell line (No. 104) made to express human GPR40 was diluted such that 3×10^4 cells/100 μL were contained, dispensed to a black walled 96-well plate (Costar) at 100 μL per well, and incubated overnight in a CO2 incubator. The changes in the intracellular calcium concentration were measured using FLIPR (Molecular Device). The method is described in the following.
Fluo-3AM (DOJIN) (50 μg) was dissolved in 21 μl DMSO (DOJIN), and an equal amount of 20% pluronic acid (Molecular Probes) was added and mixed, and the mixture was added to 10.6 ml of an assay buffer [prepared by adding 20 ml of 1M HEPES (pH 7.4) (DOJIN) to 1 L of HBSS (Invitrogen), and adding a mixed solution (10 ml) obtained by dissolving probenecid (Sigma) (710 mg) in 1N NaOH (5 ml) and adding and mixing with the above-mentioned HBSS/HEPES solution (5 ml)] supplemented with 105 μl of fetal calf serum to give a fluorescence dye solution. The medium in the cell plate was removed, a fluorescence dye solution was immediately dispensed at 100 μl per well, and incubated in a CO2 incubator for 1 hr to incorporate fluorescence dye into the cell. The incubated cells were washed with the above-mentioned assay buffer. The compound to be added to the cell was diluted with the assay buffer to each concentration and dispensed to a test sample plate. After the above-mentioned pretreatment, changes in the intracellular calcium concentration after addition of the compound was measured by FLIPR, and the agonistic effect was examined. EC50 value was calculated from a dose response curve based on the changes in the fluorescence intensity value at 30 sec after the start of the reaction.

Experiment [1] concerns mouse pancreatic β cell line MIN6. Briefly: Promotion of insulin secretion from MIN6 (insulin immunoassay). Conditions: MIN6, KRBH with 22 mM glucose, 90 min. It counts as cell-based. As to the method:
(§1) Mouse pancreatic β cell line MIN6 cultured in a flask was detached with PBS containing 2.5 mM EDTA, and seeded and incubated in a 96 well plate for 2 days. The medium used was obtained by adding 15% fetal bovine serum (ThermoTrace), […] 2-mercaptoethanol (Invitrogen), 20 mM HEPES pH 7.3, 100 U/ml penicillin and 100 μg/ml streptomycin to Dulbecco's Modified Eagle Medium (DMEM, Invitrogen) containing 4.5 g/l of glucose. The cells were washed twice with modified Krebs-Ringer bicarbonate buffer (KRBH, 116 mM NaCl, 4.7 mM KCl, 1.2 mM KH2PO4, 1.2 mM MgSO4, 2.5 mM CaCl2, 25 mM NaHCO3, 24 mM HEPES pH 7.3) and preincubated at 37° C. under 5% CO2 conditions for 30 min. Fatty acid diluted and prepared with a buffer obtained by adding 22 mM glucose to the above-mentioned KRBH was added to the cell after preincubation and the cells were incubated at 37° C. under 5% CO2 conditions for 90 min. After incubation, the cell supernatant was recovered and cryopreserved. The insulin content of the supernatant was measured using a commercially available insulin immunoassay kit (Amersham Pharmacia Biotech).
as §1, with “(KBH,” for “(KRBH,”, “The compound” for “Fatty acid”

In the next experiment the test system is Male SD rats. Description: In vivo insulin secretion promoting effect and hypoglycemic action, oral glucose tolerance test. More on the design: species or system rat. Conditions: 30 mg/kg oral, glucose 2 g/kg oral 30 min after administration, Williams test p<=0.025. As to the method:
Male SD rats (CLEA Japan, Inc, 7-week-old) were fasted for one day, and divided into groups (6 per group) based on blood glucose level and body weight. A suspension of the compound of Example 41 in 0.5% methyl cellulose was orally administered at the dose of 30 mg/kg and glucose (2 g/kg) was orally loaded at 30 min after administration. Only 0.5% methyl cellulose was administered to the control group, and similarly loaded with glucose. Plasma was taken before glucose tolerance test, and 7, 30 and 60 minutes after glucose tolerance test, and the blood glucose level and insulin concentration were measured. The blood glucose level was measured by HITACHI autoanalyzer 7070, and insulin was measured by radioimmunoassay ([^125L] Sionoria insulin, Shionogi & Co., Ltd.).

T1 sequence (O14842 whole entry): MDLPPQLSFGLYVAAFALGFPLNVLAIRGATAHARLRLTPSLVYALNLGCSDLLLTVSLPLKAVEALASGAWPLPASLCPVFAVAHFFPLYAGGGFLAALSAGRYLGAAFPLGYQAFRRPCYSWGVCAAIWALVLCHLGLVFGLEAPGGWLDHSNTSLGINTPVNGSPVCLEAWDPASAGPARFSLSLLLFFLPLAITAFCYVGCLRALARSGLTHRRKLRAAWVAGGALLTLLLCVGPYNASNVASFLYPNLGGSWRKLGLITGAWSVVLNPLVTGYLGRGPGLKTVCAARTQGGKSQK

With `O=C(O)CCc1ccc(O[C@@H]2CCc3ccccc32)cc1` [Example 41, (R)-4-[(2,3-dihydro-1H-inden-1-yl)oxy]benzenepropanoic acid], the concentration for a half-maximal effect (EC50) at human GPR40 worked out at 55 nM. Moreover, the “insulin secretion enhancing activity” value in experiment [1] is listed as “significant insulin secretion enhancing activity”. Also, the “increase in insulin versus control group” value in the experiment on Male SD rats (at 7 minutes after glucose tolerance test) was “significantly greater increase in insulin”. Moreover, the “increase in blood glucose level versus control group” value in the experiment with Male SD rats (at 30 minutes after glucose tolerance test) is recorded as “significantly suppressed increase in the blood glucose level”.
